ChEMBL document CHEMBL1201862, “PubChem BioAssay data set” (2004)
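Test compounds were applied to cells in 96-well plates for 48 hours at 5 doses. Abbreviation: GI50, concentration required for 50% inhibition of growth.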 Active and inactive are the calls of the source. No stated cut-off is given here; in the data, active = GI50 up to about 1.1 µM and inactive = higher.

Tests used:
Test in all cases: DTP human tumour cell line panel, 48 h
[1] = system: COLO 205
[2] = system: UACC-257
[3] = system: NCI/ADR-RES
[4] = system: NCI-H23
[5] = system: OVCAR-4
[6] = system: NCI-H460
[7] = system: MDA-MB-231
[8] = system: IGROV-1
[9] = system: CCRF-CEM
[10] = system: HOP-62
[11] = system: NCI-H522
[12] = system: SNB-75
[13] = system: SF-268
[14] = system: ACHN
[15] = system: T47D
[16] = system: OVCAR-5
[17] = system: Hs-578T
[18] = system: SF-539
[19] = system: NCI-H226
[20] = system: LOX IMVI
[21] = system: MDA-MB-435
[22] = system: SN12C
[23] = system: Malme-3M
[24] = system: SK-OV-3
[25] = system: UACC-62
[26] = system: HCT-116
[27] = system: 786-0
[28] = system: SF-295
[29] = system: CAKI-1
[30] = system: HCC 2998
[31] = system: MCF7
[32] = system: K562
[33] = system: TK-10
[34] = system: SK-MEL-2
[35] = system: SNB-19
[36] = system: RXF 393
[37] = system: HL-60
[38] = system: A498
[39] = system: EKVX
[40] = system: RPMI-8226
[41] = system: OVCAR-3
[42] = system: DU-145
[43] = system: HT-29
[44] = system: SK-MEL-28
[45] = system: U-251
[46] = system: OVCAR-8
[47] = system: KM12
[48] = system: SW-620
[49] = system: UO-31
[50] = system: MOLT-4
[51] = system: HOP-92
[52] = system: SK-MEL-5
[53] = system: HCT-15
[54] = system: M14
[55] = system: A549
[56] = system: MDA-N
[57] = system: PC-3
[58] = system: BT-549

Measured: GI50

CC(CNC(N)=O)NC(N)=O (centres undefined)
> 100 µM: [53]
inactive: [1] > 100 µM | [2] > 100 µM | [3] > 100 µM | [4] > 100 µM | [5] > 100 µM | [6] > 100 µM | [7] > 100 µM | [8] > 100 µM | [9] > 100 µM | [10] > 100 µM | [11] > 100 µM | [12] > 100 µM | [13] > 100 µM | [14] > 100 µM | [15] > 100 µM | [16] > 100 µM | [17] > 100 µM | [18] > 100 µM | [19] > 100 µM | [20] > 100 µM | [21] > 100 µM | [22] > 100 µM | [23] > 100 µM | [24] > 100 µM | [25] > 100 µM | [26] > 100 µM | [27] > 100 µM | [28] > 100 µM | [29] > 100 µM | [30] > 100 µM | [31] > 100 µM | [32] > 100 µM | [33] > 100 µM | [34] > 100 µM | [35] > 100 µM | [36] > 100 µM | [37] > 100 µM | [38] > 100 µM | [39] > 100 µM | [40] > 100 µM | [41] > 100 µM | [42] > 100 µM | [43] > 100 µM | [44] > 100 µM | [45] > 100 µM | [46] > 100 µM | [47] > 100 µM | [48] > 100 µM | [49] > 100 µM | [50] > 100 µM | [51] > 100 µM | [52] > 100 µM | [54] > 100 µM | [55] > 100 µM | [56] > 100 µM | [57] > 100 µM | [58] > 100 µM

Cc1c(C(=O)Nc2ccccc2)nnn1-c1ccnc2cc(C(F)(F)F)ccc12
45.3 µM: [53]
inactive: [1] 55 µM | [2] 22.1 µM | [3] 42.6 µM | [4] 50.6 µM | [5] 34.5 µM | [6] 41.6 µM | [7] 19.1 µM | [8] > 100 µM | [9] 39.4 µM | [11] 64.7 µM | [12] 34.4 µM | [13] 78.9 µM | [14] 54.7 µM | [15] 32.4 µM | [16] > 100 µM | [17] > 100 µM | [18] > 100 µM | [19] 57.4 µM | [20] 28.6 µM | [21] 40.8 µM | [22] 53.2 µM | [23] 37 µM | [24] > 100 µM | [25] 71.9 µM | [26] 45.5 µM | [27] 74 µM | [28] 46.7 µM | [29] 37.5 µM | [30] 38.1 µM | [31] 56.5 µM | [32] 37.2 µM | [33] 85.5 µM | [34] > 100 µM | [35] 33.5 µM | [36] 35.3 µM | [37] 35 µM | [38] 82.8 µM | [39] 34.7 µM | [41] 67.1 µM | [42] 49.3 µM | [43] 80.2 µM | [44] > 100 µM | [45] 68.4 µM | [46] 76.9 µM | [47] 50.8 µM | [48] > 100 µM | [49] 30.4 µM | [50] 34 µM | [51] 24.9 µM | [52] 20.5 µM | [54] 41.9 µM | [55] 89.5 µM | [56] 33.3 µM | [57] 30.1 µM | [58] > 100 µM
